Laboratory results: PMC7927014, “Novel Small Molecule Hsp90/Cdc37 Interface Inhibitors Indirectly Target K-Ras-Signaling” (Cancers, 2021)

Key:
Gal3 = assay: Western blotting of galectin-3; format: cell-based; conditions: Western blot, 24 h; K-RasG12V-transfected HEK and MDA-MB-231 cells
Method: The cells were trypsinized, washed with PBS, and lysed in RIPA buffer (cat no. 89900, ThermoFisher Scientific) containing protease and phosphatase inhibitors (cat. no. A32959, ThermoFisher Scientific) and 1 mM phenylmethylsulfonyl fluoride (PMSF). The cells in the RIPA buffer were placed on ice for 20 min, and were then sonicated in ice cold water for 5 min. The lysates were centrifuged at 4 °C, and their protein was quantified using a BCA kit (cat. no. 23225, ThermoFisher Scientific). Equal amounts of protein were separated by 10% SDS-PAGE, and were then transferred onto a nitrocellulose membrane (cat. no. NBA 083C001EA, Protran) using a wet transfer system (Bio-Rad) or semidry Transferblot Turbo Transfer System (Bio-Rad). After the transfer, the membranes were blocked for 30 min in 5% skimmed milk dissolved in 1× TBST, and then incubated with 1:2000 primary antibodies in 5% BSA in TBST at 4 °C overnight. […]
The next day, the membranes were washed three times in TBST for 10 min, and then incubated with secondary antibodies (1:5000) diluted in 5% skimmed milk in TBST for 1 h at RT. […] The protein bands were detected with a ChemiDoc MP instrument (Bio-Rad) after treatment with an ECL reagent (cat. no. 170-5061, BioRad). […]

HIF-1α = assay: Western blotting of HIF-1α in nuclear extracts; format: cell-based; conditions: Western blot of nuclear extracts, 24 h; K-RasG12V-transfected HEK and MDA-MB-231 cells; conglobatin A 5 or 10 μM, 17-AAG 2 μM
Method: The cells in the RIPA buffer were placed on ice for 20 min, and were then sonicated in ice cold water for 5 min. […] Equal amounts of protein were separated by 10% SDS-PAGE, and were then transferred onto a nitrocellulose membrane (cat. no. NBA 083C001EA, Protran) using a wet transfer system (Bio-Rad) or semidry Transferblot Turbo Transfer System (Bio-Rad). After the transfer, the membranes were blocked for 30 min in 5% skimmed milk dissolved in 1× TBST, and then incubated with 1:2000 primary antibodies in 5% BSA in TBST at 4 °C overnight.
The next day, the membranes were washed three times in TBST for 10 min, and then incubated with secondary antibodies (1:5000) diluted in 5% skimmed milk in TBST for 1 h at RT. […] All of the antigens and molecular weights in kDa are labelled next to the blots on the figures. Uncropped Western blot data are attached as Figure S6.

[1] = design: method as in PMID 24927996; conditions: mice, 900 mg/kg; cited from earlier work
HCC-44 cells = assay: Tumorosphere assay (low adhesion, serum-free 3D spheroid culture); format: cell-based; conditions: Homo sapiens, HCC44; HCC-44 (lung, G12C), low attachment, serum-free, 72 h; read-out: 3D spheroid formation IC50
Method: (§1) Per well, 2000 cells were seeded in flat bottom 96-well suspension culture plates (cat. no. 655185, Cellstar, Greiner Bio-One) in 100 µL DMEM or RPMI media containing 1× B27 (cat. no. 17504044, Gibco, Thermo Fisher Scientific), 25 ng/mL EGF (cat. no. E9644, Sigma-Aldrich), and 25 ng/mL FGF (cat. no. RP-8628, Thermo Fisher Scientific), 20% MethoCult H4100 (cat. no. 04100, […] Technologies). After 2 days, 50 µL media containing 0.3% DMSO or 3× the concentration of the indicated compounds were added to the wells in a 1:2 dilution-series, starting at 100 µM. After 72 h of treatment, 10% (v/v) alamarBlue reagent (cat. no. DAL1100, Thermo Fisher Scientific) was added to each well. Then, the fluorescence intensity (excitation 560 nm and emission 590 nm) was measured after 4 h using a H1 Hybrid Multi-Mode reader (BioTek).

MDA-MB-231 cells = assay: as above; format: cell-based; conditions: Homo sapiens, MDA-MB-231, 72 h; read-out: 3D spheroid formation IC50
Method: as §1

MIA PaCa-2 cells = assay: as above; format: cell-based; conditions: Homo sapiens; MIA PaCa-2 (pancreas), low attachment, serum-free, 72 h; read-out: 3D spheroid formation IC50
Method: as §1

SK-BR-3 cells = assay: as above; format: cell-based; conditions: Homo sapiens; SK-BR-3 (breast, n.a.), low attachment, serum-free, 72 h; read-out: 3D spheroid formation IC50
Method: as §1

Row | Compound | Gal3 levels (Gal3) | nuclear levels of HIF-1α (HIF-1α) | acute toxicity [1] | IC50 (HCC-44 cells) [µM] | IC50 (MDA-MB-231 cells) [µM] | IC50 (MIA PaCa-2 cells) [µM] | IC50 (SK-BR-3 cells) [µM]
1 | C/C1=C\[C@H](C)C[C@H](C)[C@H](Cc2cnco2)OC(=O)/C(C)=C/[C@H](C)C[C@H](C)[C@H](Cc2cnco2)OC1=O [conglobatin A, reference compound] | dose-dependently reduced | decreased the nuclear levels of HIF-1α | well tolerated | – | – | – | –
2 | N=C(CSS(=O)(=O)O)NCC12CC3CC(CC(C3)C1)C2 [×6506, [({N-[(adamantan-1-yl)methyl]carbamimidoyl}methyl)sulfanyl]sulfonic acid] | – | – | – | 67 ± 5 | 26 ± 1 | 30 ± 3 | 36 ± 4
3 | CCOc1ccc(C(=O)c2ccc(O)c(O)c2O)cc1 [×1540, 2,3,4-TRIHYDROXY-4'-ETHOXYBENZOPHENONE] | – | – | – | 52 ± 6 | 58 ± 5 | 53 ± 6 | 64 ± 5
